Assay results reported in US6592899B2, “PLA/PLGA oligomers combined with block copolymers for enhancing solubility of a drug in water” (Macromed Incorporated, priority 2001, dated 2003).
≈ marks a conversion by molar mass, not a printed value.

Tests used:
[1] = Amphotericin B solubility in triblock copolymer solution with or without PLA oligomers (dialysis preparation); format: physicochemical
Experimental: The mixture was added to dialysis tubing with a 3500 Dalton molecular weight cutoff and dialyzed against reverse osmosis deionized water (pH=2) overnight. The dialysate was then exchanged for reverse osmosis deionized water and dialyzed overnight. The reported solubility of amphotericin B in water is 3 μg/mL. […] The maximum concentration of amphotericin B in the mixture of PLA oligomers and the triblock copolymer was improved greater then 10 fold than that in the triblock copolymer alone.

[2] = cited from earlier work
[3] = Solution stability of paclitaxel in Me-PEG-PLGA diblock copolymer with or without PLA oligomer; format: physicochemical; conditions: 40 mg paclitaxel, 2 mL water
Experimental: The PLA oligomers prepared in Example 4 (75 mg) were added to 600 mg of Me-PEG-PLGA diblock copolymer prepared in Example 9, 40 mg of paclitaxel, and 2 mL of reverse osmosis deionized water. […] The solution was then filtered through a 0.2 μm filter. […] Precipitate began to appear within 1 day from the Me-PEG-PLGA diblock copolymer system alone, while the solution containing the PLA oligomer maintained paclitaxel in solution and remained clear for more than 2 days.

[4] = Solution stability of paclitaxel in PLGA-PEG-PLGA triblock copolymer with or without PLA oligomer; format: physicochemical; conditions: 40 mg paclitaxel, 2 ml water, 0.2 μm filtered
Source text: The solution stability enhancing properties of PLA oligomers are illustrated in this example. […] The solution was then filtered through a 0.2 μm filter. […] A precipitate appeared within 1 day with the PLGA-PEG-PLGA triblock copolymer system alone, while the solution containing the PLA oligomer maintained paclitaxel in solution and remained clear for more than 3 days.

time paclitaxel maintained in solution and remained clear ([3]; Me-PEG-PLGA diblock copolymer (600 mg) with PLA oligomer (75 mg)) | time until precipitate began to appear ([3]; Me-PEG-PLGA diblock copolymer system alone (600 mg)) [days] | time paclitaxel maintained in solution and remained clear ([4]; PLGA-PEG-PLGA triblock copolymer (600 mg) with PLA oligomer (75 mg)) | time until a precipitate appeared ([4]; PLGA-PEG-PLGA triblock copolymer system alone (600 mg)) [days] | Structure (SMILES) | improvement of maximum concentration over the triblock copolymer alone ([1]; mixture of PLA oligomers and the triblock copolymer) [fold] | solubility ([1]; triblock copolymer solution of Example 1 (entry 1), without PLA oligomers) [mg/mL] | reported solubility in water [2] [mg/mL]
– | – | – | – | C[C@@H]1[C@H](O)[C@@H](C)/C=C/C=C/C=C/C=C/C=C/C=C/C=C/[C@H](O[C@@H]2O[C@H](C)[C@@H](O)[C@H](N)[C@@H]2O)C[C@@H]2O[C@](O)(C[C@@H](O)C[C@@H](O)[C@H](O)CC[C@@H](O)C[C@@H](O)CC(=O)O[C@H]1C)C[C@H](O)[C@H]2C(=O)O [amphotericin B] | > 10 | 0.15 (≈ 162 µM) | 0.003
more than 2 days | ≤ 1 | more than 3 days | ≤ 1 | CC(=O)O[C@H]1C(=O)[C@@]2(C)[C@H]([C@H](OC(=O)c3ccccc3)[C@]3(O)C[C@H](OC(=O)[C@H](O)[C@@H](NC(=O)c4ccccc4)c4ccccc4)C(C)=C1C3(C)C)[C@]1(OC(C)=O)CO[C@@H]1C[C@@H]2O [paclitaxel] | – | – | –
